Measured values from patent US20120270929A1, “MODULATION OF TTC39 EXPRESSION TO INCREASE HDL” (ISIS Pharmaceuticals, Inc., priority 2009, published 2012).
Oligonucleotides are written 5' to 3', each unit as a sugar letter and its base; * is a phosphorothioate linkage, no mark a phosphodiester; rarer units and linkages stand in square brackets, end groups in braces. Plain capitals give the bases only. e = 2'-O-(2-methoxyethyl) (MOE); [5mC] = 5-methylcytosine; d = 2'-deoxy (DNA)

Key:
Type in all cases: in vivo, mouse
APOA1 plasma protein = APOA1 plasma protein levels in C57BL/6 mice; set-up: APOA1 plasma protein levels: unit not given here
Procedure: (§1) Four groups of five mice each were injected twice a week with 25 mg/kg (totaling 50 mg/kg/week) of ISIS 447114, ISIS 447118, ISIS 447143, or ISIS 447144 for 6 weeks. A control group of five mice was injected with phosphate buffered saline (PBS) twice a week for 6 weeks. Plasma samples were obtained before the start of treatment, at week 3 and at week 6. At the end of the treatment period, mice were fasted for 4 hours before being euthanized. Plasma and tissue samples were obtained for further analysis.

PCSK9 mRNA = PCSK9 mRNA levels in C57BL/6 mice; conditions: 50 mg/kg/week, 6 weeks, compared to PBS control
Procedure: as §1
(§2) The effect of inhibition of TTC39B in mice on cholesterol homeostasis was studied. PCSK9 mRNA levels were measured using the murine primer probe set mPCSK9 (forward sequence ACCGACTTCAACAGCGTGC, designated herein as SEQ ID NO: 106; reverse sequence GGCTGTCACACTTGCTCGC, designated herein as SEQ ID NO: 107, probe sequence AGGATGGGACACGCTTCCACAGACAX, wherein X is a fluorophore, designated herein as SEQ ID NO: 108). LDLR mRNA levels were measured using the murine primer probe set mLDLR (forward sequence GACCGCAGCGAGTACACCA, designated herein as SEQ ID NO: 109; reverse sequence TCACCTCCGTGTCGAGAGC, designated herein as SEQ ID NO: 110, probe sequence […], designated herein as SEQ ID NO: 111). The results are presented as percentage inhibition compared to the PBS control.

[1] = Plasma cholesterol and triglycerides in C57BL/6 mice (Olympus AU400e)
Procedure: as §1
To investigate the effect of inhibition of TTC39B on triglycerides and cholesterol levels in the plasma, samples were collected on weeks 0, 3, and 6, and total plasma cholesterol, LDL cholesterol, HDL cholesterol, and triglycerides were analyzed on an Olympus AU400e Analyzer.

[2] = Body and organ weights in C57BL/6 mice
Procedure: as §1
Body weights of all the mice were measured weekly till the end of the treatment period. Organ weights were taken at the end of the treatment period when the mice were euthanized.

[3] = Plasma glucose in C57BL/6 mice (glucose oxidase assay)
Procedure: as §1
Plasma glucose values were determined using a Beckman Glucose Analyzer II (Beckman Coulter) by a glucose oxidase assay. As presented in Table 14, there was no significant change in glucose levels after treatment with ISIS oligonucleotides.

LDLR mRNA = LDLR mRNA levels in C57BL/6 mice; conditions: 50 mg/kg/week, 6 weeks, compared to PBS control
Procedure: as §1, §2

apoA1 mRNA = apoA1 mRNA levels in C57BL/6 mice after TTC39B inhibition; conditions: 50 mg/kg/week, 6 weeks
Procedure: as §1
(§3) The effect of inhibition of TTC39B in mice on these proteins of reverse cholesterol transport was studied. RNA levels of ABCA1 were measured using murine primer probe set RTS1204 (forward sequence […], designated herein as SEQ ID NO: 97; reverse sequence […], designated herein as SEQ ID NO: 98; and probe sequence […], designated herein as SEQ ID NO: 99). RNA levels of apoA1 were measured using murine primer probe set RTS14737 (forward sequence […], designated herein as SEQ ID NO: 100; reverse sequence […], designated herein as SEQ ID NO: 101; and probe sequence […], designated herein as SEQ ID NO: 102). RNA levels of SRB1 were measured using murine primer probe set mSRB-1 (forward sequence […], designated herein as SEQ ID NO: 103; reverse sequence ATGCGACTTGTCAGGCTGG, designated herein as SEQ ID NO: 104; and probe sequence […], designated herein as SEQ ID NO: 105).

ABCA1 mRNA = ABCA1 mRNA levels in C57BL/6 mice after TTC39B inhibition; conditions: 50 mg/kg/week, 6 weeks
Procedure: as §1, §3

[4] = Plasma NEFA and 3-HB in C57BL/6 mice; set-up: 3-HB levels: unit not given here
Procedure: as §1
Effect of antisense inhibition of TTC39B on free fatty acid levels Plasma levels of non-esterified fatty acids (NEFA) and 3-hydroxybutyric acid (3-HB), which are the end-products of fatty acid oxidation, were measured using an automated clinical chemistry analyzer (Olympus Clinical Analyzer).

[5] = Liver function: plasma transaminases (ALT, AST) in C57BL/6 mice
Procedure: as §1
To evaluate the impact of ISIS oligonucleotides on the hepatic function of the mice described above, plasma concentrations of transaminases were measured using an automated clinical chemistry analyzer (Olympus Clinical Analyzer). Measurements of alanine transaminase (ALT) and aspartate transaminase (AST) are expressed in IU/L. The results are presented in Tables 19 and 20 and indicate that the oligonucleotides were well tolerated.

SRB1 mRNA = SRB1 mRNA levels in C57BL/6 mice after TTC39B inhibition; conditions: 50 mg/kg/week, 6 weeks
Procedure: as §1, §3

[6] = Week 0 (before treatment), 50 mg/kg/week

Sequence: GCCACCAGTGCCTGCTGAGC (antisense eG*e[5mC]*e[5mC]*eA*e[5mC]*d[5mC]*dA*dG*dT*dG*d[5mC]*d[5mC]*dT*dG*d[5mC]*eT*eG*eA*eG*e[5mC]) [ISIS 447143]
- APOA1 plasma protein % change over the baseline (APOA1 plasma protein; 50 mg/kg/week, 6 weeks): +108%
- APOA1 plasma protein levels (APOA1 plasma protein; [6]): +10
- APOA1 plasma protein levels (APOA1 plasma protein; Week 3, 50 mg/kg/week): +15
- APOA1 plasma protein levels (APOA1 plasma protein; Week 6, 50 mg/kg/week): +20
- Percent inhibition PCSK9 mRNA levels (PCSK9 mRNA): 65%
- total cholesterol % increase over baseline ([1]; 50 mg/kg/week, 6 weeks, baseline average of 72 mg/dL): +46%
- HDL cholesterol levels [1, 6]: 44 mg/dL
- LDL cholesterol levels [1, 6]: 13 mg/dL
- total cholesterol levels [1, 6]: 70 mg/dL
- triglyceride levels [1, 6]: 95 mg/dL
- HDL cholesterol levels ([1]; Week 3, 50 mg/kg/week): 56 mg/dL
- HDL cholesterol levels (% change over baseline) ([1]; Week 3, 50 mg/kg/week): +28%
- LDL cholesterol levels ([1]; Week 3, 50 mg/kg/week): 14 mg/dL
- total cholesterol levels ([1]; Week 3, 50 mg/kg/week): 81 mg/dL
- triglyceride levels ([1]; Week 3, 50 mg/kg/week): 92 mg/dL
- HDL cholesterol levels ([1]; Week 6, 50 mg/kg/week): 91 mg/dL
- HDL cholesterol levels (% change over baseline) ([1]; Week 6, 50 mg/kg/week): +104%
- LDL cholesterol levels ([1]; Week 6, 50 mg/kg/week): 17 mg/dL
- total cholesterol levels ([1]; Week 6, 50 mg/kg/week): 104 mg/dL
- triglyceride levels ([1]; Week 6, 50 mg/kg/week): 95 mg/dL
- Kidney weight after treatment ([2]; 50 mg/kg/week, 6 weeks): 0.34 g
- Liver weight after treatment ([2]; 50 mg/kg/week, 6 weeks): 1.5 g
- Spleen weight after treatment ([2]; 50 mg/kg/week, 6 weeks): 0.08 g
- body weight ([2]; Week 3, 50 mg/kg/week): 27 g
- body weight ([2]; Week 6, 50 mg/kg/week): 28 g
- body weight ([2]; week 1, 50 mg/kg/week): 26 g
- body weight ([2]; week 2, 50 mg/kg/week): 26 g
- body weight ([2]; week 4, 50 mg/kg/week): 27 g
- body weight ([2]; week 5, 50 mg/kg/week): 28 g
- glucose levels [3, 6]: 238 mg/dL
- glucose levels ([3]; Week 3, 50 mg/kg/week): 231 mg/dL
- glucose levels ([3]; Week 6, 50 mg/kg/week): 241 mg/dL
- Percent inhibition LDLR mRNA levels (LDLR mRNA): 34%
- apoA1 mRNA levels (effect of TTC39B inhibition) (apoA1 mRNA; 50 mg/kg): average increase
- apoA1 mRNA levels (effect of TTC39B inhibition) (apoA1 mRNA; listed as 447143, 50 mg/kg): +1
- abcA1 mRNA levels (effect of TTC39B inhibition) (ABCA1 mRNA): −17
- 3-HB % change over the baseline ([4]; 50 mg/kg/week, 6 weeks): +41%
- NEFA % change over the baseline ([4]; 50 mg/kg/week, 6 weeks): +109%
- 3-HB levels [4, 6]: 108
- NEFA levels [4, 6]: 0.70 mEq/L
- 3-HB levels ([4]; Week 3, 50 mg/kg/week): 89
- NEFA levels ([4]; Week 3, 50 mg/kg/week): 0.72 mEq/L
- 3-HB levels ([4]; Week 6, 50 mg/kg/week): 222
- NEFA levels ([4]; Week 6, 50 mg/kg/week): 1.30 mEq/L
- ALT levels [5, 6]: 32 IU/L
- AST levels [5, 6]: 50 IU/L
- ALT levels ([5]; Week 3, 50 mg/kg/week): 31 IU/L
- AST levels ([5]; Week 3, 50 mg/kg/week): 31 IU/L
- ALT levels ([5]; Week 6, 50 mg/kg/week): 45 IU/L
- AST levels ([5]; Week 6, 50 mg/kg/week): 73 IU/L
- srb1 mRNA levels (effect of TTC39B inhibition) (SRB1 mRNA): 0
